Assay results from paper PMC5402990 (PLoS Neglected Tropical Diseases, 2017).

Target: PIKfyve (Homo sapiens, UniProt Q9Y2I7)
Format: cell-based

Chain of PIKfyve (Q9Y2I7 whole entry, species assumed): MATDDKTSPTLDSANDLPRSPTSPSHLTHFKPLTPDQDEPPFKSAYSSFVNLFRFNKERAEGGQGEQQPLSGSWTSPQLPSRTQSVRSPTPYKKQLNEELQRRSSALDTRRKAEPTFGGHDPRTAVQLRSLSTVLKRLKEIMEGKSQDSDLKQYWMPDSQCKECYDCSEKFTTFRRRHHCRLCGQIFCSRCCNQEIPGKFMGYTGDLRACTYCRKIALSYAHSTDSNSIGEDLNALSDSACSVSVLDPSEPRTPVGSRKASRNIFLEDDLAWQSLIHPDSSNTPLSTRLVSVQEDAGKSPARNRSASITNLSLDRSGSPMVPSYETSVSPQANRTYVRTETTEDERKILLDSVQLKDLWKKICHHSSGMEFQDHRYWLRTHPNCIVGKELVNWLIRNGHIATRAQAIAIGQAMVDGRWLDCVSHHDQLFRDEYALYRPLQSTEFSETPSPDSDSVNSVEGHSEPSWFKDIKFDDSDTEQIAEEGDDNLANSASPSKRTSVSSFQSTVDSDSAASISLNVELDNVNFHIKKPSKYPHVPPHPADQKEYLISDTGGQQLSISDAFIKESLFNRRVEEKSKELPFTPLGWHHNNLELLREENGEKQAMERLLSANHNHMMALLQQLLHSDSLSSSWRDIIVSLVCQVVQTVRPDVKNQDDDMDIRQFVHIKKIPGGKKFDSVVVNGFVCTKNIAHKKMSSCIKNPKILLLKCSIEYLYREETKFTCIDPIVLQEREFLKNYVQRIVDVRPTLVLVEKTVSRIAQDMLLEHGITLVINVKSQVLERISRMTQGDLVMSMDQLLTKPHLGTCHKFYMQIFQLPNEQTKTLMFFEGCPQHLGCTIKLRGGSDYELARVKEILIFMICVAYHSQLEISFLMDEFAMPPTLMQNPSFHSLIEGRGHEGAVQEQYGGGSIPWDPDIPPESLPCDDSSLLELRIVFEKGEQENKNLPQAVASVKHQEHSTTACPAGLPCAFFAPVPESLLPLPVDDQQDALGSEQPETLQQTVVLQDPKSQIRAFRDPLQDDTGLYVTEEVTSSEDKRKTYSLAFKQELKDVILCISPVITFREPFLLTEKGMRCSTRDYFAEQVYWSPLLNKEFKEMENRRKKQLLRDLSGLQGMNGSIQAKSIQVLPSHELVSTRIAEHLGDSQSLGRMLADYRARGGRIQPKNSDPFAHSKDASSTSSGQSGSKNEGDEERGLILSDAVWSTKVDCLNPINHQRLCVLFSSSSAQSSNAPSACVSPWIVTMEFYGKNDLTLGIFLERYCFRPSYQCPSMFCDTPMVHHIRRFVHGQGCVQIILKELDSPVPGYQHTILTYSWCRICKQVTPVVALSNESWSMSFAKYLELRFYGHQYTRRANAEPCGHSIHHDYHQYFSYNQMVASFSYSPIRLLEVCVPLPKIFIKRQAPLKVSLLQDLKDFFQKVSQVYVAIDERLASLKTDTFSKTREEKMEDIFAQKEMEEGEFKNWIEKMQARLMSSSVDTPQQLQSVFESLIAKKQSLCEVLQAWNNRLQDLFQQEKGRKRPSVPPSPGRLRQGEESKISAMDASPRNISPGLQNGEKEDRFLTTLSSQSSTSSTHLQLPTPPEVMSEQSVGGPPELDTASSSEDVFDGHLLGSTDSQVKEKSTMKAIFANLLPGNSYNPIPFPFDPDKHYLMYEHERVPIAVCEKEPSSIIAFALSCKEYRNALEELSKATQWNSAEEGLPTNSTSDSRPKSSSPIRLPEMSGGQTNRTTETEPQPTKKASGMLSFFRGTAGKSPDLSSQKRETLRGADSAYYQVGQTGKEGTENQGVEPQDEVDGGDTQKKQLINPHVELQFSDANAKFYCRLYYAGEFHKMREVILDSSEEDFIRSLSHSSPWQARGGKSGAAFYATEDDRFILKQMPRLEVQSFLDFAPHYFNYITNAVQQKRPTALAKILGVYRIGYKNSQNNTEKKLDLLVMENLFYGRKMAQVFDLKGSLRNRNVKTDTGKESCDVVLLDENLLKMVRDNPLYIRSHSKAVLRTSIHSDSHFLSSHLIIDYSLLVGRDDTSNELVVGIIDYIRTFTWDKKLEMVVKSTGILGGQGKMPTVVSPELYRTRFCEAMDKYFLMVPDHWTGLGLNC

Cc1cccc(/C=N/Nc2cc(N3CCOCC3)nc(OCCc3ccccn3)n2)c1 [Apilimod, apilimod]
dose needed to inhibit EBOV GP-mediated infection in GFP-PIKfyve vs. GFP expressing cells: higher doses of apilimod were needed to achieve similar levels of inhibition
